Measurements reported in EP4810476A1, “COCRYSTAL OF CURCUMIN AND L-CARNITINE, AND PREPARATION METHOD THEREFOR AND USE THEREOF” (Cocrystal Health Industry (Zhejiang) Co., Ltd., priority 2023, dated 2025).

Assays:
[1] = Powder dissolution rate test; type: physicochemical; settings: 50 rpm, samples equivalent to 10 mg of curcumin
Description: Powder dissolution experiments were conducted in pH 2.0 and pH 4.5 buffer solutions (containing 0.5% Tween 80) at a temperature of 37°C and a rotation speed of 50 rpm. The commercially available curcumin crystals and the powder of the curcumin-L-carnitine cocrystal from Example 3 were sieved through a 100-mesh screen to eliminate the effect of particle size on dissolution. Samples equivalent to 10 mg of curcumin were placed into the sample vessels of the dissolution apparatus, stirred, and samples were taken at 3, 5, 10, 15, 20, 30, 45, 60, 90, and 120 minutes. Concentrations were determined using HPLC. In the pH 2.0 buffer solution, the dissolution of the cocrystal at 3 minutes was about 7 times that of curcumin itself. In the pH 4.5 buffer solution, the dissolution of the cocrystal at 3 minutes was about 8 times that of curcumin itself.

[2] = Bioavailability test (plasma pharmacokinetics after intragastric administration); design: species or system Male SD rats; settings: rat, in vivo, 200 mg/kg
Description: Male SD rats (weighing 200-300 g) kept under good feeding conditions were used for the experiment. A total of 12 rats were used, evenly divided into 2 groups of 6 rats each. Commercially available curcumin crystals and the cocrystal obtained in Example 3 were uniformly dispersed in soybean oil and administered intragastrically as a suspension. The dosage was 200 mg/kg based on curcumin content. Blood samples (1 mL per time point) were collected from the orbital venous plexus at 20 minutes, 40 minutes, 1 hour, 1.5 hours, 2.5 hours, 4 hours, 6 hours, and 8 hours after administration. Plasma was separated by centrifugation within 0.5 hours of blood collection at 10,000 rpm for 5 minutes. 100 µL of plasma was precisely transferred, added with 50 µL of enzyme buffer solution, incubated at 37°C for 60 min, then added with 0.45 mL of methanol (containing 0.2% acetic acid), vortexed for 10 min, centrifuged at 14000 rpm for 3 min, and the supernatant was collected for HPLC analysis. Table 4. Pharmacokinetic parameters for commercially available curcumin crystals and curcumin-L-carnitine cocrystal.

- dissolution of the cocrystal at 3 minutes relative to curcumin itself ([1]; pH 2.0 buffer solution containing 0.5% Tween 80, 37°C): about 7 times
- dissolution of the cocrystal at 3 minutes relative to curcumin itself ([1]; pH 4.5 buffer solution containing 0.5% Tween 80, 37°C): about 8 times
- maximum plasma concentration of curcumin relative to commercially available curcumin crystals [2]: 10.7 times
- Cmax ([2]; po): 727.8 ng/mL
- Tmax ([2]; po): 20 min
- AUC0-8h ([2]; po, 8 h): 692.5 ng·h/mL
Substance: cocrystal of curcumin and L-carnitine [Curcumin-L-carnitine cocrystal]
